Assay results reported in patent US8791092B2 (priority 2009, dated 2014).
Entries after “also recorded” stand apart in the source; their conditions may differ.

Experiments:
[1] = system: differentiated PC-12 cells; assay: Effect of tweezers alone on cell viability, MTT assay; format: cell-based; conditions: 50 μM TW1
Experimental: (§1) Cell viability relative to media control was measured using the MTT assay.
(§2) Freshly prepared 10 μM Aβ40 or Aβ42 were mixed with each of the three tweezers derivatives and added to differentiated PC-12 cells. Cell viability relative to media control was measured using the MTT assay.
(§3) 7. […] Based on the capability of the tweezers to inhibit Aβ aggregation, disaggregate pre-formed Aβ fibrils, and stabilize putatively non-toxic Aβ oligomers, we predicted that they should inhibit Aβ-induced toxicity. […] Next, we evaluated the dose-dependence of the effect of each of the three tweezers derivatives on Aβ40 and Aβ42 using the same cell culture system. Aβ42 was used at 10 μM as in the previous experiment, whereas the less neurotoxic Aβ40 was used at 25 μM. […] PC-12 cells were differentiated for 48 hours prior to the start of the assay. […] Based on the data extant, prediction of inhibitory activity based on tweezers structure alone is impossible. Thus, using molecular tweezers as inhibitors of Aβ toxicity is by no means trivial.

[2] = biological target: T1, Aβ42 (Homo sapiens, UniProt P05067); assay: Aβ42 aggregation measured by dynamic light scattering (DLS); format: biochemical; set-up: C) 30 μM Aβ42
[3] = biological target: T2, calcitonin (Homo sapiens, UniProt P01258); assay: Fibrillogenesis of calcitonin (ThT fluorescence and EM); format: biochemical; conditions: 1:10 or 1:20 concentration ratio
T2 sequence (P01258 85-116 limits assumed): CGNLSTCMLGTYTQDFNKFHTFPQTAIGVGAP

[4] = system: primary mouse hippocampal neurons; assay: Aβ42-mediated inhibition of miniature excitatory postsynaptic currents (mEPSCs); format: cell-based; conditions: 3 μM Aβ42, 1:10 Aβ42:TW1
Experimental: Cells were perfused with vehicle for 5 min to establish baseline, and then with peptide or peptide:tweezers solutions for additional 20 minutes, and allowed to recover in vehicle solution for 15 minutes.
(§4) 8. […] An early neurotoxic event induced by Aβ oligomers and believed to be a predominant pathologic mechanism causing amnestic mild cognitive impairment (MCIa) and early AD^(1) is disruption of synapse morphology and communication (Shankar et al. (2007) J. Neurosci. 27: 2866-2875). […] Aβ42 oligomers caused essentially complete depletion of dendritic spines (FIG. 14, panels B, C) compared to control (FIG. 14, panel A). […] This effect endured after the 15-min washing period.

[5] = biological target: insulin (Homo sapiens, UniProt P01308); assay: Fibrillogenesis of insulin (ThT fluorescence and EM); format: biochemical; conditions: 1:10 or 1:20 concentration ratio
[6] = biological target: T3, Aβ40 (Homo sapiens, UniProt P05067); conditions: 20 μM Aβ40, 10-fold excess TW1; for over a month
[7] = biological target: T3, Aβ40; format: binding; set-up: A) 25 μM Aβ40; conditions: 1:1 Aβ40:TW1 concentration ratio
[8] = biological target: β2-microglobulin (β2m) (Homo sapiens, UniProt P61769); assay: Fibrillogenesis of β2-microglobulin (ThT fluorescence and EM); format: biochemical; conditions: 1:10 or 1:20 concentration ratio
[9] = system: rat primary hippocampal neurons; assay: Aβ42-induced decrease in dendritic spine density; format: cell-based
Experimental: Neurons were visualized by staining F-actin with phalloidin (red) and nuclei were stained with DAPI (blue). A) Untreated cells show abundant dendritic spines (rough appearance). B and C) Show duplicate fields from the same experiment. Cells incubated with 500 nM Aβ42 oligomers show essential absence of spines (smooth neurites).
as §4

[10] = system: Aβ40-induced toxicity in differentiated PC-12 cells; assay: Aβ40-induced toxicity, MTT assay in differentiated PC-12 cells; format: cell-based
Experimental: as §2, §3

[11] = biological target: T1, Aβ42; assay: β-sheet formation by Aβ42 under agitation (shaking); format: biochemical; set-up: C) 30 μM Aβ42; conditions: 10 μM Aβ42; 1:10 Aβ:tweezers concentration ratio; shaken at 200 rpm
Experimental: Aβ42 was used at 10 μM. […] The samples were shaken at 200 rpm.

[12] = system: Aβ42-induced toxicity in differentiated PC-12 cells; assay: Aβ42-induced toxicity, MTT assay in differentiated PC-12 cells; format: cell-based
Experimental: as §1, §2, §3

[13] = biological target: T1, Aβ42; assay: Quiescent Aβ42 β-sheet formation measured by thioflavin T (ThT) fluorescence; conditions: 25 μM Aβ42, 20 μM tweezers, substoichiometric
[14] = biological target: T1, Aβ42; assay: Quiescent Aβ42 fibril formation measured by electron microscopy (EM); format: biochemical; set-up: C) 30 μM Aβ42; conditions: 25 μM Aβ42 + 20 μM TW1, days 3, 5, 10
Experimental: 8 μL of each solution were applied to glow-discharged, carbon-coated Formvar grids and incubated for 20 min. The samples were fixed by incubating with 5 μL of 2.5% glutaraldehyde for 5 min, and stained with 5 μL of 1% uranyl acetate for 5 min. The stained samples were examined using a JEOL CX100 electron microscope. A-C) 25 μM Aβ42. […] A, D) day 3. B, E) day 5. C, F) day 10.
5. TW1 attenuates Aβ fibril formation as measured by electron microscopy (EM).

[15] = biological target: T4, islet amyloid polypeptide (IAPP) (Homo sapiens, UniProt P10997); assay: Fibrillogenesis of islet amyloid polypeptide (ThT fluorescence and EM); format: biochemical; conditions: 1:10 or 1:20 concentration ratio
T4 sequence (P10997 34-70 limits assumed): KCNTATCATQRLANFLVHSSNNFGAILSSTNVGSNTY

T3 sequence (P05067 672-711 limits assumed): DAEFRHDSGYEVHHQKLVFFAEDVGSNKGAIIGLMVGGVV
T1 sequence (P05067 672-713 limits assumed): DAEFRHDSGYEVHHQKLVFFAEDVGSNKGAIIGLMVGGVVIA
insulin, sequence (P01308 25-54 limits assumed, species assumed): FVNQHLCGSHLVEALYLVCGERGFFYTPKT
insulin, sequence (P01308 90-110 partner limits assumed, species assumed): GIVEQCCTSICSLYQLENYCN
β2-microglobulin (β2m), sequence (P61769 21-119): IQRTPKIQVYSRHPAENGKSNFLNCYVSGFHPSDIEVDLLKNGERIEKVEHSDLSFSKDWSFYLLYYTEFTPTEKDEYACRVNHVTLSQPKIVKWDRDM

In the case of O=P(O)(O)Oc1c2c(c(OP(=O)(O)O)c3c1C1C[C@H]3c3cc4c(cc31)C1C[C@H]4c3ccccc31)[C@@H]1CC2c2cc3c(cc21)[C@@H]1CC3c2ccccc21 [TW1], the “toxicity of tweezers alone (in words)” value [1] is reported as “nontoxic”, the “Aβ42 particle growth (DLS)” value ([2]; 20 μM Aβ42, 10-fold excess TW1, for over a month) is reported as “no particle growth was observed” and the “Aβ42 particle growth (DLS)” value ([2]; 1:1 concentration ratio) is reported as “substantially delayed or not observed at all”. The “inhibition of calcitonin fibrillogenesis” value [3] was “inhibited the fibrillogenesis; also recorded: inhibited the aggregation”, the “rescue of Aβ42-induced reduction of mEPSC frequency” value [4] was “rescued to baseline level; also recorded: rescues the toxic effect of Aβ42 to baseline level” and the “inhibition of insulin fibrillogenesis” value [5] was “inhibited the fibrillogenesis; also recorded: inhibited the aggregation”. For the same compound, the “Aβ40 particle growth (DLS)” value [6] was “no particle growth was observed”, the “binding site of TW1 in the 1:1 complex (ECD)” value [7] was “within the Aβ(14-23) region, most likely at Lys16; also recorded: Lys16” and the “inhibition of β2m fibrillogenesis” value [8] was “inhibited the fibrillogenesis; also recorded: inhibited the aggregation”. The “rescue of Aβ42-induced depletion of dendritic spines, TW1 present during oligomer preparation” value ([9]; 500 nM Aβ42 oligomerized in presence of 250 nM TW1, 48 h) was “rescued this toxic effect to baseline level; also recorded: essentially complete rescue”, the “rescue of dendritic spines, TW1 added with pre-formed Aβ42 oligomers” value ([9]; 500 nM pre-formed Aβ42 oligomers, 5 μM TW1 (10-fold excess), 48 h) was “moderate rescue effect” and the “effect of TW1 alone on dendritic spine morphology” value ([9]; 5 μM TW1) was “no effect”. For the same compound, the IC50 ([10]; Rattus norvegicus, PC-12, 48 h, read-out: IC50, inhibition of Aβ40-induced toxicity) was 7 µM, the “inhibition of Aβ40-induced toxicity (in words)” value ([10]; tweezers 0.1-100 μM, dose-dependence experiment) was “inhibit Aβ-induced toxicity dose-dependently” and the “inhibition of β-sheet formation by Aβ42 under agitation” value [11] was “efficient inhibition; also recorded: completely inhibited”. For the same compound, the “inhibition of Aβ42-induced toxicity (in words)” value ([12]; 10 μM Aβ42, tweezers 0.1-100 μM, dose-dependence experiment) was “inhibit Aβ-induced toxicity dose-dependently”, the IC50 ([12]; Rattus norvegicus, 10 μM Aβ42, tweezers 0.1-100 μM, PC-12 differentiated 48 hours, read-out: IC50, inhibition of Aβ42-induced toxicity) was 60 µM and the “times more TW1 required to inhibit Aβ42 than Aβ40 toxicity” value ([12]; from IC50 values) was 9-10 times. The “inhibition of β-sheet formation by Aβ42 (ThT)” value [13] was “inhibit β-sheet formation”, the “conversion of Aβ42 to typical amyloid fibrils (EM)” value [14] was “delayed substantially” and the “inhibition of IAPP fibrillogenesis” value [15] was “inhibited the fibrillogenesis; also recorded: inhibited the aggregation”.
